{"source": "patent US12049444B2", "about": "“Monomethyl fumarate precursor drug compounds and pharmaceutical compositions thereof” (AGATHONBIO CO., LTD., priority 2019, dated 2024)", "key": {"[1]": {"details": "cited from earlier work"}, "[2]": {"details": "rat, in vivo, po, 0.139 mmol/kg", "description": "The test compounds and control compounds were each prepared in the same way and administered at a dose of 0.139 mmol/kg to rats, and after blood was collected at a predetermined time, plasma was separated. Analysis of the drug was performed using HPLC (XBridge column C18, Waters, mobile phase 0.1% formic acid:acetonitrile (30:70, %/%)) and MS/MS (ESI positive, MRM). Each commercial standard solution was mixed with rat blank plasma at a ratio of 9:1 to prepare standard solutions and calibrate at concentrations of 5, 50, 100, 500, 100 and 5,000 ng/ml. In addition, the QC sample was prepared at 100, 750 and 2,500 ng/ml concentrations by mixing rat blank plasma and QC standard solution in a 9:1 ratio. […] And the concentration of the active ingredient in rat plasma, that is, monomethyl fumarate, was quantified by applying the previously verified assay. For pharmacokinetic parameters, WinNonlin 5.2 (Pharsight, USA) program was used, and AUC0-t, AUC0-∞, Cmax, Tmax, and t1/2 were calculated by noncompartment modeling (best fit). Pharmacokinetic parameter results were expressed as mean (Mean) and standard deviation (SD), and statistically processed using the SPSS program (Statistical Package for the Social Sciences, 10.0K, USA)."}}, "note": "Structures can show the parent of a compound that is named as a salt."}
{"smiles": "COC(=O)/C=C/C(=O)OCCN1C(=O)CCC1=O", "note": "[ALKS8700, diroximel fumarate]", "values": [{"measurement": "safety in phase 1 clinical trial", "setting": "[1]", "value": "proven to be safe"}]}
{"smiles": "CCN(CC)C(=O)COC(=O)/C=C/C(=O)OC", "note": "[Reference Example 1, 2-(diethylamino)-2-oxoethyl Methyl Fumarate]", "values": [{"measurement": "safety in phase 1 clinical trial", "setting": "[1]", "value": "proven to be safe"}, {"measurement": "AUC0-24", "setting": "[2]", "value": 8280, "unit": "ng·h/mL"}]}
